Measurements from patent publication US11592453B2, “Personalized metabolomic profiling of specialized pro-resolving mediators” (THE BRIGHAM AND WOMEN'S HOSPITAL, INC., priority 2016, dated 2023).

What was measured:
[1] = system: CREB and S6 in neutrophils and monocytes; assay: Single-cell analysis of intracellular signaling in whole blood leukocytes; assay type: cell-based, human
human macrophages = assay: Real-time analysis of phagocytosis of E. coli by human macrophages; assay type: cell-based; conditions: 1 nM each; for rank of increase in macrophage phagocytosis among individual SPMs: individually
Description: Human peripheral blood mononuclear cells from deidentified healthy human volunteers from the Children's Hospital Boston blood bank were isolated by density-gradient, Ficoll-Histopaque isolation, which was followed by monocyte purification. The monocytes were then cultured for 7 days in RPMI 1640, 10% fetal calf serum (FCS) and were differentiated into macrophages through culturing with granulocyte-macrophage colony-stimulating factor (GM-CSF, 20 ng/ml).
Real-time imaging of human macrophages was performed by plating the cells (50,000 cells/well in PBS++) onto 8-well chamber slides. The chamber slides were kept in a Stage Top Incubation system for microscopes equipped with a built-in digital gas mixer and temperature regulator (TOKAI HIT model INUF-K14). A panel of SPMs (RvE1, RvD1, RvD5, LXB4, and MaR1; 1 nM each or in combination) was added to the macrophages for 15 min, which was followed by the addition of BacLight Green-labeled E. coli (at an E. coli:phagocyte ratio of 50:1). Images were then acquired every 10 min for 3 hours at 37 °C with a Keyence BZ-9000 (BIOREVO) inverted fluorescence phase-contrast microscope (20× objective) equipped with a monochrome-color switching camera using BZ-II Viewer software (Keyence). Mean fluorescence intensity was quantified with a BZ-II Analyzer.

E. coli = assay: Whole blood bacterial killing during coagulation; assay type: cell-based; conditions: BAI 200 μM, 24 h
Description: FIG. 10 illustrates the inhibitor of SPM formation BAI reduces bacterial killing. Freshly drawn human peripheral blood (4 mL) was placed in silicone-coated tubes at 37° C. for 24 h and was either stopped by snap freezing for LC-MS/MS, or supernatants were placed on LB agar plates and incubated overnight at 37° C. before enumeration of bacterial colonies. (A) Bacterial survival and (B) SPM in human peripheral blood (2.0 mL) incubated with E. coli (7×10^8 CFU) in the presence or absence of a LOX inhibitor (BAI) 200 μM for 24 h; 37° C. (n=4 individual donors). Data are means±SEM; *P<0.05, ****P<0.0001 for +BAI vs. Coag using ratio t-test.
Fresh human blood (2.0 ml) without anticoagulant was incubated with E. coli (˜7×108) in the presence or absence of 200 µM baicalein (a LOX inhibitor; Sigma) and allowed to coagulate at 37° C. for 24 hours. Serum from blood were diluted in PBS on ice and aliquots were placed on LB agar and incubated overnight in a 37° C. incubator. Colonies were enumerated.

[2] = system: SPM production in human whole blood; assay: SPM and eicosanoid production during coagulation with heparin, eptifibatide, ADA, celecoxib or BAI; assay type: cell-based
Description: FIG. 2 illustrates regulators of SPM formation in human blood. (A to E) Freshly drawn human peripheral blood (4 ml) containing heparin (10 U/ml) was placed in polypropylene tubes (A) whereas human peripheral blood without anticoagulant was placed in silicone-coated tubes (B to E) and incubated at 37° C. for the time course of 0 to 24 hours (see Example 1, Materials and Methods). The samples were then subjected to snap-freezing for extraction and LC-MS/MS analysis. (A) Concentrations of the members of the SPM cluster (identified in FIG. 1) in samples treated without (Coag.) or with heparin (10 U/ml) during the incubation period. Data are means±SEM of three individual donors. (B) Left: Combined concentrations of the total SPM cluster, prostaglandins, and thromboxanes after 24 hours of coagulation in the presence or absence of the αIIbβ3 inhibitor eptifibatide (Eptifib.; 20 μM). Middle: Clot volumes after 24 hours of coagulation of the indicated samples. Right: Representative clot images. Data are means±SEM of three individual donors. (C) Concentrations of total SPMs and of the indicated individual SPMs after 24 hours of coagulation in the presence or absence of 200 mU ADA. Data are means±SEM of three individual donors. *P<0.05, **P<0.01 by ratio t-test. (D) Top: LC-MS/MS measurements of adenosine concentrations in whole blood at the indicated time points during coagulation in the presence or absence of ADA. **P<0.01 when compared to the zero-hour time point. Bottom: Flow cytometric analysis of the percentage of neutrophil-platelet aggregates, which were defined as being double-positive for CD16 and CD42b, in whole blood allowed to coagulate for the indicated times in the absence (Coag.) or presence of ADA. Data are means±SEM of five individual donors. *P<0.05, **P <0.01 by student's t test. For dot plots and gating, see FIG. 7B. (E) MS/MS fragmentation profiles with diagnostic ions for the indicated SPMs identified in (C). (F) Left: PCA score plot. Red denotes +ADA for 1 hour; yellow, coagulation for 1 hour; green, coagulation for 24 hours; blue, +ADA for 24 hours. Right: PCA loading plot showing temporal clustering of the indicated mediators from three individual donors. Red denotes LM at 1 hour; blue denotes 24 hours with ADA).
FIG. 8 illustrates SPM formation in human blood clots being regulated by lipoxygenase activity. (A and B) Freshly drawn human peripheral blood (4 ml) was placed in silicone-coated tubes at 37° C. for 24 hours and coagulation was stopped by snap-freezing before LC-MS/MS analysis was performed. Concentrations of total SPMs, prostaglandins, and thromboxanes after 24 hours of coagulation (Coag.) in the presence or absence of (A) 100 μM indomethacin (Indo.) (n=six individual donors), (B) 500 nM celecoxib (CLX) or 20 μM BAI (n=three individual donors). […]

[3] = system: prostaglandin, thromboxane and SPM production in human whole blood; assay: LM metabololipidomics of human whole blood during coagulation in the presence of indomethacin; assay type: cell-based; conditions: 100 μM indomethacin
Description: FIG. 8 illustrates SPM formation in human blood clots being regulated by lipoxygenase activity. (A and B) Freshly drawn human peripheral blood (4 ml) was placed in silicone-coated tubes at 37° C. for 24 hours and coagulation was stopped by snap-freezing before LC-MS/MS analysis was performed. Concentrations of total SPMs, prostaglandins, and thromboxanes after 24 hours of coagulation (Coag.) in the presence or absence of (A) 100 μM indomethacin (Indo.) (n=six individual donors), (B) 500 nM celecoxib (CLX) or 20 μM BAI (n=three individual donors). Data are means±SEM; *P<0.05 for +BAI vs. Coag; ****P<0.0001 for +Indo vs. Coag. using ratio t-test.
Human whole blood was transferred in 4-ml aliquots to negatively charged, silicone-coated 10-ml tubes (BD) without anticoagulant. For experiments with heparin, the heparinized blood was placed in 15-ml polypropylene tubes before incubation at 37° C. For LM profiling at designated times, all samples were immediately subjected to a workup procedure by which whole blood was snap-frozen in a dry ice/isopropanol bath and were returned to room temperature (×3 cycles) before undergoing centrifugation at 100,000 g at 4° C. Supernatants (and clots for select experiments; see FIG. 6) were collected and were subjected to LC-MS/MS LM metabololipidomics. […]

Row | Molecule | intracellular signaling in neutrophils and monocytes [1] | extent of phagocytosis of E. coli by human macrophages, individual SPMs (human macrophages) | further results
1 | CCCCC[C@H](O)[C@H](O)/C=C/C=C/C=C\C=C\[C@@H](O)CCCC(=O)O [LXB4, lipoxin B4: (5S, 14R, 15S-trihydroxy-eicosa-6E, 8Z, 10E, 12E-tetraenoic acid)] | activated CREB and S6 | statistically significantly enhanced | rank of increase in macrophage phagocytosis among individual SPMs (human macrophages): greatest increases
2 | CC/C=C\C/C=C\C[C@H](O)\C=C/C=C/C=C/[C@H](O)C/C=C\CCC(=O)O [Maresin 1, maresin 1 (7R, 14S-dihydroxy-docosa-4Z, 8E, 10E, 12Z, 16Z, 19Z-hexaenoic acid)] | activated CREB and S6 | statistically significantly enhanced | 
3 | CC/C=C\C[C@H](O)/C=C/C=C\C=C\C=C\[C@@H](O)[C@@H](O)C/C=C\CCC(=O)O [RvD1, Resolvin D1 (7S, 8R, 17S-trihydroxy-docosa-4Z, 9E, 11E, 13Z, 15E, 19Z-hexaenoic acid)] | activated CREB and S6 | statistically significantly enhanced | 
4 | CC/C=C\C[C@H](O)/C=C/C=C\C/C=C\C=C\[C@@H](O)C/C=C\CCC(=O)O [RvD5, Resolvin D5 (7S, 17S-dihydroxy-docosa-4Z, 8E, 10Z, 13Z, 15E, 19Z-hexaenoic acid)] | activated CREB and S6 |  | 
5 | CC[C@@H](O)/C=C/C=C\C[C@@H](O)/C=C/C=C/C=C\[C@@H](O)CCCC(=O)O [RvE1, Resolvin E1 (5S, 12R, 18R-trihydroxy-eicosa-6Z, 8E, 10E, 14Z, 16E-pentaenoic acid)] | activated CREB and S6 | statistically significantly enhanced | rank of increase in macrophage phagocytosis among individual SPMs (human macrophages): greatest increases
6 | O=c1cc(-c2ccccc2)oc2cc(O)c(O)c(O)c12 [baicalein] |  |  | increase in bacterial counts in the presence of the lipoxygenase inhibitor (E. coli; P<0.0001): > 10 fold; reduction in the abundances of members of the SPM cluster from coagulation (E. coli; with E. coli): > 80%; total amounts of SPMs ([2]; 20 μM BAI, 24 hours): reduced the total amounts of SPMs
7 | COc1ccc2c(c1)c(CC(=O)O)c(C)n2C(=O)c1ccc(Cl)cc1 [indomethacin] |  |  | total SPM amounts compared to absence of inhibitor [3]: did not substantially change; inhibition at 100 µM ([3]; Homo sapiens, 24 hours vs. coagulation alone, read-out: inhibition of total prostaglandin and thromboxane production): > 99%
8 | heparin |  |  | reduction of SPMs in total in blood containing heparin ([2]; heparin 10 U/ml): 98%
